In patent US12427157B2, “Methods for treatment of diseases involving acidic or hypoxic diseased tissues” (Cybrexa 1, Inc., priority 2018, dated 2025):
Residues, ends and D or L forms follow the SMILES beside them. *: point of attachment. X7 = C[C@@H](COC(=O)NCN1c2cc(F)cc3c(=O)[nH]nc(c23)[C@H](c2ncnn2C)[C@H]1c1ccc(F)cc1)S*; X8 = Cn1ncnc1[C@H]1c2n[nH]c(=O)c3cc(F)cc(c23)N(CNC(=O)OCC2(S*)CCC2)[C@@H]1c1ccc(F)cc1; X4 = C[C@H](COC(=O)NCN1c2cc(F)cc3c(=O)[nH]nc(c23)[C@H](c2ncnn2C)[C@H]1c1ccc(F)cc1)S*; X1 = Cn1ncnc1[C@H]1c2n[nH]c(=O)c3cc(F)cc(c23)N(CNC(=O)OCCS*)[C@@H]1c1ccc(F)cc1

What was measured:
[1] = system: DLD-1 BRCA2−/− cells; test: Growth delay assay; type: cell-based, Human; conditions: pH 7.4, BRCA (−/−) DLD-1, 96 h
Procedure: Cells were plated in 96 well black walled-clear bottom plates (Griener), DLD-1 WT cells at 2500 cells per well, DLD-1 BRCA2−/− at 5000 cells per well, in growth media containing 10% FBS. Cells were allowed to adhere at room temperature for 60 minutes before returning to a 37 C, 5% CO2 incubator. After 24 hours, media was removed and replaced with fresh growth media containing various drug concentrations. Each drug concentration was added in triplicate. Non-drug treated controls contained growth media only. Cells were returned to the incubator. Ninety-six hours after addition of drug, cells were fixed with 4% paraformaldehyde for 20 minutes and stained with Hoechst at 1 ug/mL. The plates were imaged on a Cytation 5 auto imager (BioTek) and cells were counted using CellProfiler (http://cellprofiler.org). The percent cell growth delay was calculated and data plotted using GraphPad Prism.

[2] = molecular target: PARP (Homo sapiens, UniProt P09874); test: Enzymatic Assay 2: HT Universal Chemiluminescent PARP Assay of cleaved compounds; conditions: read-out: IC50 Enzymatic Assay 2; Examples cleaved per Example A (crude cleavage solution); R^8H starting materials as such;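 further: PARP reaction with activated DNA run 1 h at room temperature, product detected via streptavidin-HRP and luminescence endpoint reading on a plate reader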
PARP, sequence (P09874 whole entry): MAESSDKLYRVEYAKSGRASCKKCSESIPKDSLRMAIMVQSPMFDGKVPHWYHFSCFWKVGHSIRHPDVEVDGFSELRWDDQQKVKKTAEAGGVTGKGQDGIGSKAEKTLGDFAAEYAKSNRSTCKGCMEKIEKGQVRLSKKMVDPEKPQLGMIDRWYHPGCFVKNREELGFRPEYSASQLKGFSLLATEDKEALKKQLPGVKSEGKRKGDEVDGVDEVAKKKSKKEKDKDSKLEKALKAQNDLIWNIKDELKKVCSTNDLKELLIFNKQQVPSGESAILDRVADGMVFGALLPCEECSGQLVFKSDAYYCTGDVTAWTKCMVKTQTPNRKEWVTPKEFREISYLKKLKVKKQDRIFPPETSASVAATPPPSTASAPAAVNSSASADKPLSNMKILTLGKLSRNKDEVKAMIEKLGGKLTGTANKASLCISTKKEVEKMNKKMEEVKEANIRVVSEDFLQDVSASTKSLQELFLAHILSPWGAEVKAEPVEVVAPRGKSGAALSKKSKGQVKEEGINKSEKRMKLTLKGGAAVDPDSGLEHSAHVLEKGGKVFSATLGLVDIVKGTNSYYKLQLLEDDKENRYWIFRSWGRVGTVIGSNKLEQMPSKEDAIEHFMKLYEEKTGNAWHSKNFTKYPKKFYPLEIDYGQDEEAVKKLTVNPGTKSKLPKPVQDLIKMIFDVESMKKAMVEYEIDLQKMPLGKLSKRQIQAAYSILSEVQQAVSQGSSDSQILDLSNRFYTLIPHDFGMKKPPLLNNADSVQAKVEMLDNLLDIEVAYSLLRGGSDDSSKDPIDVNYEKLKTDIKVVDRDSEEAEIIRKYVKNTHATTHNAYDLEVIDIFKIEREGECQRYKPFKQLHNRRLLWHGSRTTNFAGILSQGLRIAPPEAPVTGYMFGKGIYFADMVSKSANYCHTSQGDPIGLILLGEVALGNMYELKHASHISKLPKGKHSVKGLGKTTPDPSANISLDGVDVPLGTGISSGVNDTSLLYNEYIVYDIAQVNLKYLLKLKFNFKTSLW

`CC[C@H](C)[C@H](NC(=O)[C@@H]1CCCN1C(=O)[C@H](CC(N)=O)NC(=O)[C@H](CCC(N)=O)NC(=O)[C@H](CCC(=O)O)NC(=O)[C@H](C)N)C(=O)N[C@@H](Cc1ccc(O)cc1)C(=O)N[C@@H](Cc1c[nH]c2ccccc12)C(=O)N[C@@H](C)C(=O)N[C@@H](CCCNC(=N)N)C(=O)N[C@@H](Cc1ccc(O)cc1)C(=O)N[C@@H](C)C(=O)N[C@@H](CC(=O)O)C(=O)N[C@@H](Cc1c[nH]c2ccccc12)C(=O)N[C@@H](CC(C)C)C(=O)N[C@@H](Cc1ccccc1)C(=O)N[C@H](C(=O)N[C@H](C(=O)N1CCC[C@H]1C(=O)N[C@@H](CC(C)C)C(=O)N[C@@H](CC(C)C)C(=O)N[C@@H](CC(C)C)C(=O)N[C@@H](CC(C)C)C(=O)N[C@@H](CC(=O)O)C(=O)N[C@@H](CC(C)C)C(=O)N[C@@H](C)C(=O)N[C@@H](CC(C)C)C(=O)N[C@@H](CC(C)C)C(=O)N[C@H](C(=O)N[C@@H](CC(=O)O)C(=O)N[C@@H](C)C(=O)N[C@@H](CC(=O)O)C(=O)N[C@@H](CCC(=O)O)C(=O)N[C@@H](CSSC1(COC(=O)NCN2c3cc(F)cc4c(=O)[nH]nc(c34)[C@H](c3ncnn3C)[C@H]2c2ccc(F)cc2)CCC1)C(=O)NCC(=O)O)C(C)C)[C@@H](C)O)[C@@H](C)O` [Example 39] (H-AEQNPIYWARYADWLFTTPLLLLDLALLVDADEC(X8)G-OH; N-terminus and C-terminus assumed) was tested, and the IC50 [1] was 104 nM and the IC50 [2] was 3 nM.
`CC(C)C[C@H](NC(=O)[C@H](Cc1ccc(O)cc1)NC(=O)[C@H](C)NC(=O)[C@H](CCCNC(=N)N)NC(=O)[C@H](Cc1c[nH]c2ccccc12)NC(=O)[C@@H]1CCCN1C(=O)[C@H](CC(N)=O)NC(=O)[C@H](CCC(N)=O)NC(=O)[C@H](CC(=O)O)NC(=O)[C@H](CC(=O)O)NC(=O)[C@H](C)N)C(=O)N[C@@H](CC(=O)O)C(=O)N[C@@H](CC(C)C)C(=O)N[C@@H](CC(C)C)C(=O)N[C@@H](Cc1ccccc1)C(=O)N1CCC[C@H]1C(=O)N[C@H](C(=O)N[C@@H](CC(=O)O)C(=O)N[C@H](C(=O)N[C@@H](CC(C)C)C(=O)N[C@@H](CC(C)C)C(=O)N[C@@H](CC(C)C)C(=O)N[C@@H](CC(=O)O)C(=O)N[C@@H](CC(C)C)C(=O)N[C@@H](CC(C)C)C(=O)N[C@@H](Cc1c[nH]c2ccccc12)C(=O)N[C@@H](CC(=O)O)C(=O)N[C@@H](C)C(=O)N[C@@H](CC(=O)O)C(=O)N[C@@H](CCC(=O)O)C(=O)N[C@@H](CSSCCOC(=O)NCN1c2cc(F)cc3c(=O)[nH]nc(c23)[C@H](c2ncnn2C)[C@H]1c1ccc(F)cc1)C(=O)NCC(=O)O)[C@@H](C)O)[C@@H](C)O` [Example 17] gave an IC50 [1] of 50 nM and an IC50 [2] of 0.41 nM.
Compound `CC[C@H](C)[C@H](NC(=O)[C@@H]1CCCN1C(=O)[C@H](CC(N)=O)NC(=O)[C@H](CCC(N)=O)NC(=O)[C@H](CCC(=O)O)NC(=O)[C@H](C)N)C(=O)N[C@@H](Cc1ccc(O)cc1)C(=O)N[C@@H](Cc1c[nH]c2ccccc12)C(=O)N[C@@H](C)C(=O)N[C@@H](CCCNC(=N)N)C(=O)N[C@@H](Cc1ccc(O)cc1)C(=O)N[C@@H](C)C(=O)N[C@@H](CC(=O)O)C(=O)N[C@@H](Cc1c[nH]c2ccccc12)C(=O)N[C@@H](CC(C)C)C(=O)N[C@@H](Cc1ccccc1)C(=O)N[C@H](C(=O)N[C@H](C(=O)N1CCC[C@H]1C(=O)N[C@@H](CC(C)C)C(=O)N[C@@H](CC(C)C)C(=O)N[C@@H](CC(C)C)C(=O)N[C@@H](CC(C)C)C(=O)N[C@@H](CC(=O)O)C(=O)N[C@@H](CC(C)C)C(=O)N[C@@H](C)C(=O)N[C@@H](CC(C)C)C(=O)N[C@@H](CC(C)C)C(=O)N[C@H](C(=O)N[C@@H](CC(=O)O)C(=O)N[C@@H](C)C(=O)N[C@@H](CC(=O)O)C(=O)N[C@@H](CCC(=O)O)C(=O)N[C@@H](CSS[C@@H](C)COC(=O)NCN1c2cc(F)cc3c(=O)[nH]nc(c23)[C@H](c2ncnn2C)[C@H]1c1ccc(F)cc1)C(=O)NCC(=O)O)C(C)C)[C@@H](C)O)[C@@H](C)O` [Example 13] (H-AEQNPIYWARYADWLFTTPLLLLDLALLVDADEC(X7)G-OH; N-terminus and C-terminus assumed) has an IC50 [1] of 51 nM and an IC50 [2] of 1 nM.
In the case of `CC[C@H](C)[C@H](NC(=O)[C@@H]1CCCN1C(=O)[C@H](CC(N)=O)NC(=O)[C@H](CCC(N)=O)NC(=O)[C@H](CCC(=O)O)NC(=O)[C@H](C)N)C(=O)N[C@@H](Cc1ccc(O)cc1)C(=O)N[C@@H](Cc1c[nH]c2ccccc12)C(=O)N[C@@H](C)C(=O)N[C@@H](CCCNC(=N)N)C(=O)N[C@@H](Cc1ccc(O)cc1)C(=O)N[C@@H](C)C(=O)N[C@@H](CC(=O)O)C(=O)N[C@@H](Cc1c[nH]c2ccccc12)C(=O)N[C@@H](CC(C)C)C(=O)N[C@@H](Cc1ccccc1)C(=O)N[C@H](C(=O)N[C@H](C(=O)N1CCC[C@H]1C(=O)N[C@@H](CC(C)C)C(=O)N[C@@H](CC(C)C)C(=O)N[C@@H](CC(C)C)C(=O)N[C@@H](CC(C)C)C(=O)N[C@@H](CC(=O)O)C(=O)N[C@@H](CC(C)C)C(=O)N[C@@H](C)C(=O)N[C@@H](CC(C)C)C(=O)N[C@@H](CC(C)C)C(=O)N[C@H](C(=O)N[C@@H](CC(=O)O)C(=O)N[C@@H](C)C(=O)N[C@@H](CC(=O)O)C(=O)N[C@@H](CCC(=O)O)C(=O)N[C@@H](CSS[C@H](C)COC(=O)NCN1c2cc(F)cc3c(=O)[nH]nc(c23)[C@H](c2ncnn2C)[C@H]1c1ccc(F)cc1)C(=O)NCC(=O)O)C(C)C)[C@@H](C)O)[C@@H](C)O` [Example 14] (H-AEQNPIYWARYADWLFTTPLLLLDLALLVDADEC(X4)G-OH; N-terminus and C-terminus assumed), the IC50 [1] is reported as 72 nM and the IC50 [2] is reported as 0.5 nM.
Compound `CC(C)C[C@H](NC(=O)[C@H](Cc1ccc(O)cc1)NC(=O)[C@H](C)NC(=O)[C@H](CCCNC(=N)N)NC(=O)[C@H](Cc1c[nH]c2ccccc12)NC(=O)[C@@H]1CCCN1C(=O)[C@H](CC(N)=O)NC(=O)[C@H](CCC(N)=O)NC(=O)[C@H](CC(=O)O)NC(=O)[C@H](CC(=O)O)NC(=O)[C@H](C)N)C(=O)N[C@@H](CC(=O)O)C(=O)N[C@@H](CC(C)C)C(=O)N[C@@H](CC(C)C)C(=O)N[C@@H](Cc1ccccc1)C(=O)N1CCC[C@H]1C(=O)N[C@H](C(=O)N[C@@H](CC(=O)O)C(=O)N[C@H](C(=O)N[C@@H](CC(C)C)C(=O)N[C@@H](CC(C)C)C(=O)N[C@@H](CC(C)C)C(=O)N[C@@H](CC(=O)O)C(=O)N[C@@H](CC(C)C)C(=O)N[C@@H](CC(C)C)C(=O)N[C@@H](Cc1c[nH]c2ccccc12)C(=O)N[C@@H](CSS[C@@H](C)COC(=O)NCN1c2cc(F)cc3c(=O)[nH]nc(c23)[C@H](c2ncnn2C)[C@H]1c1ccc(F)cc1)C(=O)NCC(=O)O)[C@@H](C)O)[C@@H](C)O` [Example 42] has an IC50 [1] of 53 nM and an IC50 [2] of 1.4 nM.
Work on `CC(C)C[C@H](NC(=O)[C@H](Cc1ccc(O)cc1)NC(=O)[C@H](C)NC(=O)[C@H](CCCNC(=N)N)NC(=O)[C@H](Cc1c[nH]c2ccccc12)NC(=O)[C@@H]1CCCN1C(=O)[C@H](CC(N)=O)NC(=O)[C@H](CCC(N)=O)NC(=O)[C@H](CC(=O)O)NC(=O)[C@H](CC(=O)O)NC(=O)[C@H](C)N)C(=O)N[C@@H](CC(=O)O)C(=O)N[C@@H](CC(C)C)C(=O)N[C@@H](CC(C)C)C(=O)N[C@@H](Cc1ccccc1)C(=O)N1CCC[C@H]1C(=O)N[C@H](C(=O)N[C@@H](CC(=O)O)C(=O)N[C@H](C(=O)N[C@@H](CC(C)C)C(=O)N[C@@H](CC(C)C)C(=O)N[C@@H](CC(C)C)C(=O)N[C@@H](CC(=O)O)C(=O)N[C@@H](CC(C)C)C(=O)N[C@@H](CC(C)C)C(=O)N[C@@H](Cc1c[nH]c2ccccc12)C(=O)N[C@@H](CSSCCOC(=O)NCN1c2cc(F)cc3c(=O)[nH]nc(c23)[C@H](c2ncnn2C)[C@H]1c1ccc(F)cc1)C(=O)NCC(=O)O)[C@@H](C)O)[C@@H](C)O` [Example 16] yielded an IC50 [1] of 84 nM and an IC50 [2] of 0.61 nM.
Work on `CC[C@H](C)[C@H](NC(=O)[C@@H]1CCCN1C(=O)[C@H](CC(N)=O)NC(=O)[C@H](CCC(N)=O)NC(=O)[C@H](CCC(=O)O)NC(=O)[C@H](C)N)C(=O)N[C@@H](Cc1ccc(O)cc1)C(=O)N[C@@H](Cc1c[nH]c2ccccc12)C(=O)N[C@@H](C)C(=O)N[C@@H](CCCNC(=N)N)C(=O)N[C@@H](Cc1ccc(O)cc1)C(=O)N[C@@H](C)C(=O)N[C@@H](CC(=O)O)C(=O)N[C@@H](Cc1c[nH]c2ccccc12)C(=O)N[C@@H](CC(C)C)C(=O)N[C@@H](Cc1ccccc1)C(=O)N[C@H](C(=O)N[C@H](C(=O)N1CCC[C@H]1C(=O)N[C@@H](CC(C)C)C(=O)N[C@@H](CC(C)C)C(=O)N[C@@H](CC(C)C)C(=O)N[C@@H](CC(C)C)C(=O)N[C@@H](CC(=O)O)C(=O)N[C@@H](CC(C)C)C(=O)N[C@@H](C)C(=O)N[C@@H](CC(C)C)C(=O)N[C@@H](CC(C)C)C(=O)N[C@H](C(=O)N[C@@H](CC(=O)O)C(=O)N[C@@H](C)C(=O)N[C@@H](CC(=O)O)C(=O)N[C@@H](CCC(=O)O)C(=O)N[C@@H](CSSCCOC(=O)NCN1c2cc(F)cc3c(=O)[nH]nc(c23)[C@H](c2ncnn2C)[C@H]1c1ccc(F)cc1)C(=O)NCC(=O)O)C(C)C)[C@@H](C)O)[C@@H](C)O` [Example 12] (H-AEQNPIYWARYADWLFTTPLLLLDLALLVDADEC(X1)G-OH; N-terminus and C-terminus assumed) yielded an IC50 [1] of 162 nM and an IC50 [2] of 0.47 nM.
